{"source": "patent US20110053773A1", "about": "“METHODS OF IMPROVING NUTRITIONAL VALUE OF PLANTS” (UNIVERSITY OF TENNESSEE RESEARCH FOUNDATION, priority 2009, published 2011)", "tested_on": "'Riviera' bermudagrass", "test": "Leaf tissue pigment concentrations of bermudagrass after mesotrione (Example 5, Table 16)", "assay_type": "in vivo, Cynodon dactylon (L.) Pers.", "details": "for Blade tissue pigments: Beta-carotene / Blade tissue pigments: Lutein / Blade tissue pigments: Phytoene / Blade tissue pigments: Total Carotenoids / Blade tissue pigments: Violaxanthin / Blade tissue pigments: Zeaxanthin: 0.28 kg ai×ha^−1", "source_text": "Greenhouse and laboratory studies were initiated with ‘Riviera’ bermudagrass (Cynodon dactylon (L.) Pers.) treated postemergence with mesotrione at 0.28 kg×ha^−1 and sampled for tissue pigment concentrations at 0, 3, 7, 14, 21, 28 and 35 days after treatment (DAT; Table 16). […] Due to the antioxidant activity of these carotenoid pigments, these increases should improve bermudagrass stress tolerance (Kopsell et al., 2010)."}
{"smiles": "CS(=O)(=O)c1ccc(C(=O)C2C(=O)CCCC2=O)c([N+](=O)[O-])c1", "note": "[Mesotrione*CALLISTO, mesotrione]", "values": [{"measurement": "Blade tissue pigments: Beta-carotene", "setting": "0 days after treatment", "value": 17.2, "unit": "mg/100 g fresh weight"}, {"measurement": "Blade tissue pigments: Lutein", "setting": "0 days after treatment", "value": 23.6, "unit": "mg/100 g fresh weight"}, {"measurement": "Blade tissue pigments: Phytoene", "setting": "0 days after treatment", "value": 0.0, "unit": "mg/100 g fresh weight"}, {"measurement": "Blade tissue pigments: Total Carotenoids", "setting": "0 days after treatment", "value": 57.5, "unit": "mg/100 g fresh weight"}, {"measurement": "Blade tissue pigments: Violaxanthin", "setting": "0 days after treatment", "value": 6.9, "unit": "mg/100 g fresh weight"}, {"measurement": "Blade tissue pigments: Zeaxanthin", "setting": "0 days after treatment", "value": 3.2, "unit": "mg/100 g fresh weight"}, {"measurement": "Blade tissue pigments: Beta-carotene", "setting": "3 days after treatment", "value": 11.6, "unit": "mg/100 g fresh weight"}, {"measurement": "Blade tissue pigments: Lutein", "setting": "3 days after treatment", "value": 14.8, "unit": "mg/100 g fresh weight"}, {"measurement": "Blade tissue pigments: Phytoene", "setting": "3 days after treatment", "value": 37.5, "unit": "mg/100 g fresh weight"}, {"measurement": "Blade tissue pigments: Total Carotenoids", "setting": "3 days after treatment", "value": 42.9, "unit": "mg/100 g fresh weight"}, {"measurement": "Blade tissue pigments: Violaxanthin", "setting": "3 days after treatment", "value": 1.6, "unit": "mg/100 g fresh weight"}, {"measurement": "Blade tissue pigments: Zeaxanthin", "setting": "3 days after treatment", "value": 3.1, "unit": "mg/100 g fresh weight"}, {"measurement": "Blade tissue pigments: Beta-carotene", "setting": "7 days after treatment", "value": 7.4, "unit": "mg/100 g fresh weight"}, {"measurement": "Blade tissue pigments: Lutein", "setting": "7 days after treatment", "value": 14.1, "unit": "mg/100 g fresh weight"}, {"measurement": "Blade tissue pigments: Phytoene", "setting": "7 days after treatment", "value": 38.0, "unit": "mg/100 g fresh weight"}, {"measurement": "Blade tissue pigments: Total Carotenoids", "setting": "7 days after treatment", "value": 35.6, "unit": "mg/100 g fresh weight"}, {"measurement": "Blade tissue pigments: Violaxanthin", "setting": "7 days after treatment", "value": 1.6, "unit": "mg/100 g fresh weight"}, {"measurement": "Blade tissue pigments: Zeaxanthin", "setting": "7 days after treatment", "value": 3.3, "unit": "mg/100 g fresh weight"}, {"measurement": "Blade tissue pigments: Beta-carotene", "setting": "14 days after treatment", "value": 7.6, "unit": "mg/100 g fresh weight"}, {"measurement": "Blade tissue pigments: Lutein", "setting": "14 days after treatment", "value": 16.4, "unit": "mg/100 g fresh weight"}, {"measurement": "Blade tissue pigments: Phytoene", "setting": "14 days after treatment", "value": 11.7, "unit": "mg/100 g fresh weight"}, {"measurement": "Blade tissue pigments: Total Carotenoids", "setting": "14 days after treatment", "value": 47.2, "unit": "mg/100 g fresh weight"}, {"measurement": "Blade tissue pigments: Violaxanthin", "setting": "14 days after treatment", "value": 3.5, "unit": "mg/100 g fresh weight"}, {"measurement": "Blade tissue pigments: Zeaxanthin", "setting": "14 days after treatment", "value": 3.8, "unit": "mg/100 g fresh weight"}, {"measurement": "Blade tissue pigments: Beta-carotene", "setting": "21 days after treatment", "value": 11.4, "unit": "mg/100 g fresh weight"}, {"measurement": "Blade tissue pigments: Lutein", "setting": "21 days after treatment", "value": 21.2, "unit": "mg/100 g fresh weight"}, {"measurement": "Blade tissue pigments: Phytoene", "setting": "21 days after treatment", "value": 0.0, "unit": "mg/100 g fresh weight"}, {"measurement": "Blade tissue pigments: Total Carotenoids", "setting": "21 days after treatment", "value": 60.1, "unit": "mg/100 g fresh weight"}, {"measurement": "Blade tissue pigments: Violaxanthin", "setting": "21 days after treatment", "value": 4.0, "unit": "mg/100 g fresh weight"}, {"measurement": "Blade tissue pigments: Zeaxanthin", "setting": "21 days after treatment", "value": 4.7, "unit": "mg/100 g fresh weight"}, {"measurement": "Blade tissue pigments: Beta-carotene", "setting": "28 days after treatment", "value": 18.9, "unit": "mg/100 g fresh weight"}, {"measurement": "Blade tissue pigments: Lutein", "setting": "28 days after treatment", "value": 32.1, "unit": "mg/100 g fresh weight"}, {"measurement": "Blade tissue pigments: Phytoene", "setting": "28 days after treatment", "value": 0.0, "unit": "mg/100 g fresh weight"}, {"measurement": "Blade tissue pigments: Total Carotenoids", "setting": "28 days after treatment", "value": 77.2, "unit": "mg/100 g fresh weight"}, {"measurement": "Blade tissue pigments: Violaxanthin", "setting": "28 days after treatment", "value": 2.8, "unit": "mg/100 g fresh weight"}, {"measurement": "Blade tissue pigments: Zeaxanthin", "setting": "28 days after treatment", "value": 5.7, "unit": "mg/100 g fresh weight"}, {"measurement": "Blade tissue pigments: Beta-carotene", "setting": "35 days after treatment", "value": 21.2, "unit": "mg/100 g fresh weight"}, {"measurement": "Blade tissue pigments: Lutein", "setting": "35 days after treatment", "value": 37.1, "unit": "mg/100 g fresh weight"}, {"measurement": "Blade tissue pigments: Phytoene", "setting": "35 days after treatment", "value": 0.0, "unit": "mg/100 g fresh weight"}, {"measurement": "Blade tissue pigments: Total Carotenoids", "setting": "35 days after treatment", "value": 92.7, "unit": "mg/100 g fresh weight"}, {"measurement": "Blade tissue pigments: Violaxanthin", "setting": "35 days after treatment", "value": 6.8, "unit": "mg/100 g fresh weight"}, {"measurement": "Blade tissue pigments: Zeaxanthin", "setting": "35 days after treatment", "value": 6.4, "unit": "mg/100 g fresh weight"}, {"measurement": "pigments in treated plants", "setting": "0.28 kg/ha postemergence, after initial decrease with tissue whitening", "value": "most recovered to untreated levels by 21 DAT"}, {"measurement": "lutein, β-carotene, and zeaxanthin versus untreated control plants", "setting": "0.28 kg/ha postemergence, at 35 DAT", "value": "accumulated to levels exceeding untreated control plants"}, {"measurement": "phytoene detection", "setting": "0.28 kg/ha postemergence, sampled 0 to 35 DAT", "value": "only detected in mesotrione treated plants at 3, 7, and 14 DAT"}]}
